According to the NIST ThermoML archive (doi:10.1016/j.fluid.2008.02.018):
“And” between values parts separate entries of the source, which are not always exact repeats. Equal entries are not always repeated. Numbers after ± are expanded uncertainties.

Legend:
[1] = refractive index (Na D-line) (dimensionless); conditions: 298.15 K; 101.33 kPa; Liquid; Standard Abbe refractometry
[2] = Liquid; for mass density: 101.33 kPa

O=C1CCCC1 [cyclopentanone]
refractive index [1]: 1.4347 ± 0.0007 | mass density ([2]; 298.15 K): 945.3 ± 1.2 kg/m3 | vapor or sublimation pressure ([2]; 298.15 K): 1.72 ± 0.09 kPa | vapor or sublimation pressure ([2]; 308.15 K): 2.8 ± 0.1 kPa | vapor or sublimation pressure ([2]; 318.15 K): 4.64 ± 0.13 kPa

ClC(Cl)Cl [trichloromethane]
refractive index [1]: 1.4428 ± 0.0007 | mass density ([2]; 298.15 K): 1475.9 ± 2.1 kg/m3 | vapor or sublimation pressure ([2]; 298.15 K): 26.44 ± 0.48 kPa | vapor or sublimation pressure ([2]; 308.15 K): 40.19 ± 0.65 kPa | vapor or sublimation pressure ([2]; 318.15 K): 58.69 ± 0.87 kPa and 58.68 ± 0.87 kPa

ClCCCl [1,2-dichloroethane]
refractive index [1]: 1.4421 ± 0.0007 | mass density ([2]; 298.15 K): 1250.9 ± 1.7 kg/m3 | vapor or sublimation pressure ([2]; 298.15 K): 10.81 ± 0.23 kPa | vapor or sublimation pressure ([2]; 308.15 K): 17.02 ± 0.31 kPa | vapor or sublimation pressure ([2]; 318.15 K): 25.77 ± 0.42 kPa

O=C1CCCCC1 [cyclohexanone]
refractive index [1]: 1.4482 ± 0.0007 | mass density ([2]; 298.15 K): 943 ± 1.2 kg/m3 | vapor or sublimation pressure ([2]; 298.15 K): 0.64 ± 0.06 kPa | vapor or sublimation pressure ([2]; 308.15 K): 1.15 ± 0.08 kPa | vapor or sublimation pressure ([2]; 318.15 K): 1.91 ± 0.09 kPa
